Here are results for 1 compound from PMC9785202, “Changes in Disposition of Ezetimibe and Its Active Metabolites Induced by Impaired Hepatic Function: The Influence of Enzyme and Transporter Activities” (Pharmaceutics, 2022).

This series deals with T1, OATP2B1 (Homo sapiens, UniProt O94956).
T1 construct: host or cells: HEK293
T1 sequence (O94956 1-709): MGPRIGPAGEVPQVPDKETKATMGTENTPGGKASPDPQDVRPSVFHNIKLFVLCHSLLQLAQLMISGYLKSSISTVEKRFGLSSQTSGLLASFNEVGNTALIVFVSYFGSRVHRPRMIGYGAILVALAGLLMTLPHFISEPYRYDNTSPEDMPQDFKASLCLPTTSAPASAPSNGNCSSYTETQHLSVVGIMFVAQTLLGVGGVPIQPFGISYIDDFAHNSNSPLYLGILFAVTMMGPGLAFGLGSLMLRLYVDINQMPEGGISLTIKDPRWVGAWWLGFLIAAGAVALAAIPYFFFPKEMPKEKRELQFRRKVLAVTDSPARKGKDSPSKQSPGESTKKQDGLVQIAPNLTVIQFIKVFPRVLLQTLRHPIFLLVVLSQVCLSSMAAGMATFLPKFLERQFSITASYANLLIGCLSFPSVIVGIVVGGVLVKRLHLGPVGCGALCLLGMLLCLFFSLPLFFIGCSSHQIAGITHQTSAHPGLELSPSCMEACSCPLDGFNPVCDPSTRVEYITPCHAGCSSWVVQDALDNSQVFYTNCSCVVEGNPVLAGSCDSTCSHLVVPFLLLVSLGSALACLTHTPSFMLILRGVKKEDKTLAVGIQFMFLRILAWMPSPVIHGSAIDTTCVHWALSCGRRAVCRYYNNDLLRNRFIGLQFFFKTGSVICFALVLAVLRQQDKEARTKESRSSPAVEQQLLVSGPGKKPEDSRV
In words: Uptake of EZE-Ph into OATP2B1-transfected HEK293 cells. In kind it is in vitro ADME. As to the method: The kinetic parameters and the half inhibitory concentration (IC50) were calculated using GraphPad Prism. […] The intrinsic clearance (CLint) was calculated as CLint = Vmax/Km.

Take `O=C(O)[C@H]1O[C@@H](Oc2ccc([C@@H]3[C@@H](CC[C@H](O)c4ccc(F)cc4)C(=O)N3c3ccc(F)cc3)cc2)[C@H](O)[C@@H](O)[C@@H]1O` [EZE-Ph, ezetimibe phenoxy β-D-glucuronide]: under “10 μM EZE-Ph, OATP2B1 HEK293”, the “uptake in transporter-transfected cells relative to mock-transfected cells” value stood at 3.7 times. The compound further gave a CLint (OATP2B1 HEK293, CLint = Vmax/Km) of 0.56 μL/min/mg Protein. Also, the “Kinetic Model” value (OATP2B1 HEK293, uptake time 5 min) was “Michaelis–Menten”.
